From patent publication US20110111061A1, “Compositions and Methods for the Treatment of Skeletal Metastatic Lesions and Fractures” (priority 2008, published 2011)

Assay: Adriamycin elution from bone cement in vitro
Assay type: physicochemical
Conditions: one or two vials (10 mg adriamycin each) added to a packet of PMMA bone cement (22.5 g powder + 9 ml liquid monomer)
Method: […] […] They were mixed thoroughly to ensure there are no large adriamycin flakes. […] One gram of this composite elutes 340 micrograms of adriamycin within 24 hours in vitro. The prepared bone cement drug powder was then loaded in sterile syringes (2 g/syringe). To prepare the bone cement putty for implantation and in situ polymerization, 1 ml of Confidence™ monomer was added to this powder and mixed thoroughly 5 minutes prior to implantation.

elution of adriamycin from PMMA bone cement without filler: negligible elution
Compound: COc1cccc2c1C(=O)c1c(O)c3c(c(O)c1C2=O)C[C@@](O)(C(=O)CO)C[C@@H]3O[C@H]1C[C@H](N)[C@H](O)[C@H](C)O1 [adriamycin]
